The source of these data is patent publication US12404243B2, “Inhibitors of the Wnt/beta-catenin pathway” (The Regents of the University of California, priority 2018, dated 2025).

“Also recorded” adds a separate entry of the source.

Test [1] has as its system Wnt/β-catenin-mediated transcription. As to the kind of experiment: TCF-luciferase activity assay in 293T/Top/β-cat* cells. Format: cell-based. The conditions noted are these: summary of FIGS. 5A, B (293T/Top cells + LiCl) and 6A-C (293T/Top/β-cat* cells). As for the experimental part: 293T cells were maintained in DMEM medium containing 10% FBS and antibiotics (penicillin and streptomycin) at 37° C. in 5% CO2. Cells were stably infected with lentiviruses expressing the TopFlash reporter (293T/Top cells). The β-catenin mutant (β-cat*, the constitutively active mutant) construct was prepared using the retroviral expression vector by standard PCR. For viral transduction, retrovirus was obtained by co-trasfection of pQCXIP-β-cat* with packaging plasmids into 293T cells following the manufacturer's instructions. 293T/Top stable cells were seeded in 10 cm dish and incubated overnight. The next day cells were treated with retroviral particles. After 12 hours, the medium was replaced with fresh medium. 2 days post virus infection, the cells were selected with puromycin for 5 days to generate the 293T/Top/β-cat* stable cell line.
293 T/Top/β-cat* cells were plated at 40%-50% confluences in 12-well plate for 8 hours and then treated with Wnt inhibitors overnight. The luciferase activity of total cell lysates was measured using Luciferase Assay System (Promega). The related TCF-luciferase activity was normalized against the protein concentration of each cell lysate sample.

Another test deals with SW480 tumor xenografts. As to the kind of experiment: Mouse xenografts of SW480 cells. It counts as in vivo, nude mice. The conditions noted are these: for tumor growth: mouse xenograft studies of human colon cancer, summary of FIGS. 7A-D, 8A-C, 9A-C; for tumor volume: day 12 to day 21 (FIG. 9A). As to the method:
5×10^5 of SW480 cells were injected subcutaneously into the flank area of 6-8-week-old nude mice. Tumor volume was measured by using an electronic caliper and calculated with the formula length×width^2×0.5, every 2 days. 12 days after inoculation, tumor bearing mice were administered Wnt inhibitors (dissolved in 10% DMSO+20% Cremophor EL+70% normal saline) via intraperitoneal injection for 5 days per week for 10 days at 10 mg/kg. Animal body weights were measured before drug treatments and at the end of the experiments. At the end of the experiments, animals were euthanized with carbon dioxide, followed by cervical dislocation. The tumors were dissected and weighed on the digital balance. We housed mice in pathogen-free facilities under 12-h light and 12-h dark cycle. The animal protocol and experimental procedures were approved by the Division of Laboratory Animal Medicine of UCLA and were in accordance with the US National Institute of Health guidelines.
In general terms: A xenograft is tissue or cells of one species grown in another, often human tumour cells in immunodeficient mice.

Where [2] appears, read: SW480 xenografts, 10 mg/kg, day 12 to 22 (FIG. 7A).
The mark [3] stands for this setting: SW480 xenografts, 10 mg/kg, day 12 to 22 (FIG. 7B).
The mark [4] stands for this setting: SW480 xenografts, 10 mg/kg, day 12 to 22 (FIG. 7C).
The mark [5] stands for this setting: SW480 xenografts, 10 mg/kg, day 12 to 22 (FIG. 16A).
Setting [6] is: SW480 xenografts, 10 mg/kg, day 12 to 22 (FIG. 16B).
The mark [7] stands for this setting: SW480 xenografts, 10 mg/kg, day 12 to 22 (FIG. 16C).
Where [8] appears, read: SW480 xenografts, 10 mg/kg, day 12 to day 20 (FIG. 8B).
Setting [9] is: SW480 xenografts, 10 mg/kg, day 12 to day 21 (FIG. 9B).
[10] abbreviates: SW480 xenografts, 10 mg/kg, day 12 to day 21 (FIG. 9C).

With `CN(C)CCC(=O)N1C/C(=C\c2cccc(C(F)(F)F)c2)C(=O)/C(=C/c2cccc(C(F)(F)F)c2)C1` [JC018, 1-(3-(Dimethylamino)propanoyl)-3,5-bis((E)-3-(trifluoromethyl)benzylidene)piperidin-4-one], the Wnt/β-catenin-mediated transcription result in test [1] is on record as “significantly inhibited”.

As to `CN(C)CCC(=O)N1C/C(=C\c2ccccn2)C(=O)/C(=C/c2ccccn2)C1` [JC021, (3E,5E)-1-(3-(Dimethylamino)propanoyl)-3,5-bis(pyridin-2-ylmethylene)piperidin-4-one], the Wnt/β-catenin-mediated transcription entry in test [1] is listed as “significantly inhibited”.

`CN(C)CCC(=O)N1C/C(=C\c2ccc(C(F)(F)F)cc2)C(=O)/C(=C/c2ccc(C(F)(F)F)cc2)C1` [JC022, 1-(3-(Dimethylamino)propanoyl)-3,5-bis((E)-4-(trifluoromethyl)benzylidene)piperidin-4-one]: in test [1], the Wnt/β-catenin-mediated transcription entry is given as “significantly inhibited”.

Consider `CN(C)CCC(=O)N1C/C(=C\c2ccc(F)c(F)c2)C(=O)/C(=C/c2ccc(F)c(F)c2)C1` [JC026, 3,5-Bis((E)-3,4-difluorobenzylidene)-1-(3-(dimethylamino)propanoyl)piperidin-4-one], for which the Wnt/β-catenin-mediated transcription result in test [1] is on record as “significantly inhibited”. Moreover, the tumor volumes entry in the test with SW480 tumor xenografts (setting [2]) is on record as “significantly reduced tumor volumes”. Moreover, the “tumor sizes at the end of treatment” value in the test with SW480 tumor xenografts (setting [3]) was “significantly reduced the size of tumors recovered”. In the test on SW480 tumor xenografts (setting [4]), the “tumor weights at the end of treatment” value is recorded as “significantly reduced the weight of tumors recovered”. The tumor growth result in the test on SW480 tumor xenografts is recorded as “significantly inhibited the tumor growth”.

Regarding `CN(C)CCC(=O)N1C/C(=C\c2cc(Cl)cc(Cl)c2)C(=O)/C(=C/c2cc(Cl)cc(Cl)c2)C1` [JC028, 3,5-Bis((E)-3,5-dichlorobenzylidene)-1-(3-(dimethylamino)propanoyl)piperidin-4-one], the Wnt/β-catenin-mediated transcription result in test [1] is given as “significantly inhibited”.

`CN(C)CCC(=O)N1C/C(=C\c2ccc(Cl)c(Cl)c2)C(=O)/C(=C/c2ccc(Cl)c(Cl)c2)C1` [JC032, 3,5-Bis((E)-3,4-dichlorobenzylidene)-1-(3-(dimethylamino)propanoyl)piperidin-4-one]: the Wnt/β-catenin-mediated transcription entry in test [1] is “significantly inhibited”.

As to `O=C1/C(=C/c2ccc(F)c(F)c2)CN(C(=O)CCN2CCCCC2)C/C1=C\c1ccc(F)c(F)c1` [JC048, 3,5-Bis((E)-3,4-difluorobenzylidene)-1-(3-(piperidin-1-yl)propanoyl)piperidin-4-one], the Wnt/β-catenin-mediated transcription entry in test [1] was “significantly inhibited”.

Regarding `CCN(CC)CCC(=O)N1C/C(=C\c2ccc(F)c(F)c2)C(=O)/C(=C/c2ccc(F)c(F)c2)C1` [JC049, 1-(3-(Diethylamino)propanoyl)-3,5-bis((E)-3,4-difluorobenzylidene)piperidin-4-one], the Wnt/β-catenin-mediated transcription result in test [1] is listed as “significantly inhibited”. Besides, the tumor volumes entry in the test on SW480 tumor xenografts (setting [2]) is recorded as “significantly reduced tumor volumes”; with SW480 tumor xenografts (setting [7]), “significantly reduced tumor volumes”; with SW480 tumor xenografts (SW480 xenografts, 10 mg/kg, day 12 to day 20 (FIG. 8A)), “significantly reduced tumor volumes”. Moreover, the “tumor sizes at the end of treatment” value in the test with SW480 tumor xenografts (setting [3]) is recorded as “significantly reduced the size of tumors recovered”; in the test on SW480 tumor xenografts (setting [9]), “significantly reduced the size of the tumors recovered”. Moreover, the “tumor weights at the end of treatment” value with SW480 tumor xenografts (setting [4]) is recorded as “significantly reduced the weight of tumors recovered”; in the test on SW480 tumor xenografts (setting [6]), “significantly reduced the weight of tumors recovered”; in the test with SW480 tumor xenografts (setting [10]), “significantly reduce the weight of tumors recovered”. The “actual tumor sizes at the end of treatment” value (“actual tumor sizes at the end” for short) in the test with SW480 tumor xenografts (setting [5]) and in the test on SW480 tumor xenografts (setting [8]) was “reduced the size of tumors recovered” in each case. For the same molecule, the “actual tumor weights at the end of treatment” value in the test on SW480 tumor xenografts (SW480 xenografts, 10 mg/kg, day 12 to day 20 (FIG. 8C)) is given as “significantly reduced the weight of tumors recovered”. For the same molecule, the tumor volume result in the test on SW480 tumor xenografts (SW480 xenografts, 10 mg/kg) is given as “significantly reduce tumor volume”. In addition, the tumor growth result in the test on SW480 tumor xenografts is listed as “significantly inhibited the tumor growth; also recorded: showed the strongest inhibition”.

Turning to `CN(C)CCS(=O)(=O)N1C/C(=C\c2ccc(F)c(F)c2)C(=O)/C(=C/c2ccc(F)c(F)c2)C1` [JC060, 3,5-Bis((E)-3,4-difluorobenzylidene)-1-((2-(dimethylamino)ethyl)sulfonyl)piperidin-4-one], in test [1], the Wnt/β-catenin-mediated transcription entry is “significantly inhibited”. In the test on SW480 tumor xenografts (setting [2]), the tumor volumes result is recorded as “significantly reduced tumor volumes”. Besides, the results for the “tumor sizes at the end of treatment” value with SW480 tumor xenografts (setting [3]) and in the test on SW480 tumor xenografts (setting [9]) were “significantly reduced the size of tumors recovered” and “significantly reduced the size of the tumors recovered”, respectively. In addition, the entries for the “tumor weights at the end of treatment” value in the test on SW480 tumor xenografts (setting [4]) and with SW480 tumor xenografts (setting [10]) were “significantly reduced the weight of tumors recovered” and “significantly reduce the weight of tumors recovered”, respectively. The tumor volume result with SW480 tumor xenografts (SW480 xenografts, 10 mg/kg) is “significantly reduce tumor volume”. For the same molecule, the tumor growth entry in the test with SW480 tumor xenografts is listed as “significantly inhibited the tumor growth”.

Take `CN(C)CCC(=O)NC1C/C(=C\c2ccc(F)c(F)c2)C(=O)/C(=C/c2ccc(F)c(F)c2)C1` (stereo not drawn) [JC070, N-(3,5-Bis((E)-3,4-difluorobenzylidene)-4-oxocyclohexyl)-3-(dimethylamino)propanamide]: the Wnt/β-catenin-mediated transcription entry in test [1] is recorded as “significantly inhibited”. The tumor volumes entry in the test with SW480 tumor xenografts (setting [2]) is on record as “significantly reduced tumor volumes”. Moreover, in the test on SW480 tumor xenografts (setting [3]), the “tumor sizes at the end of treatment” value is reported as “significantly reduced the size of tumors recovered”. Also, in the test with SW480 tumor xenografts (setting [4]), the “tumor weights at the end of treatment” value is “significantly reduced the weight of tumors recovered”. Further, the tumor growth result in the test on SW480 tumor xenografts is on record as “showed some inhibition, but did not reach significance”.

In the case of `O=C1/C(=C/c2ccc(F)c(F)c2)CN(C(=O)CCC(=O)N2CCCC2)C/C1=C\c1ccc(F)c(F)c1` [JC072, 1-(3,5-Bis((E)-3,4-difluorobenzylidene)-4-oxopiperidin-1-yl)-4-(pyrrolidin-1-yl)butane-1,4-dione], the Wnt/β-catenin-mediated transcription entry in test [1] is “significantly inhibited”.

As for `O=C1/C(=C/c2ccc(F)c(F)c2)CN(C(=O)c2ccc(OCCN3CCCCC3)cc2)C/C1=C\c1ccc(F)c(F)c1` [JC082, 3,5-Bis((E)-3,4-difluorobenzylidene)-1-(4-(2-(piperidin-1-yl)ethoxy)benzoyl)piperidin-4-one], in the test on SW480 tumor xenografts (SW480 xenografts, 10 mg/kg), the tumor volume entry is given as “significantly reduce tumor volume”. Besides, the “tumor sizes at the end of treatment” value in the test on SW480 tumor xenografts (setting [9]) is on record as “significantly reduced the size of the tumors recovered”. Besides, the “tumor weights at the end of treatment” value in the test with SW480 tumor xenografts (setting [10]) is “significantly reduce the weight of tumors recovered”. For the same molecule, in the test with SW480 tumor xenografts, the tumor growth result was “significantly inhibited the tumor growth”.

With `CCN(CC)CCS(=O)(=O)N1C/C(=C\c2ccc(F)c(F)c2)C(=O)/C(=C/c2ccc(F)c(F)c2)C1` [JC098, 1-((2-(Diethylamino)ethyl)sulfonyl)-3,5-bis((E)-3,4-difluorobenzylidene)piperidin-4-one], in the test with SW480 tumor xenografts (setting [8]), the “actual tumor sizes at the end” value is recorded as “reduced the size of tumors recovered”.

`CN(C)CCNC(=O)C1C/C(=C\c2cc(Cl)cc(Cl)c2)C(=O)/C(=C/c2cc(Cl)cc(Cl)c2)C1` (stereo not drawn) [JC137, 3,5-Bis((E)-3,5-dichlorobenzylidene)-N-(2-(dimethylamino)ethyl)-4-oxocyclohexane-1-carboxamide]: the “actual tumor sizes at the end” value in the test on SW480 tumor xenografts (setting [5]) was “reduced the size of tumors recovered”.

Regarding `CN(C)CCOc1ccc(NC(=O)C2C/C(=C\c3cc(Cl)cc(Cl)c3)C(=O)/C(=C/c3cc(Cl)cc(Cl)c3)C2)cc1` (stereo not drawn) [JC138, 3,5-Bis((E)-3,5-dichlorobenzylidene)-N-(4-(2-(dimethylamino)ethoxy)phenyl)-4-oxocyclohexane-1-carboxamide], the “actual tumor sizes at the end” value with SW480 tumor xenografts (setting [5]) is reported as “reduced the size of tumors recovered”. The “tumor weights at the end of treatment” value in the test with SW480 tumor xenografts (setting [6]) is listed as “significantly reduced the weight of tumors recovered”. Besides, the tumor volumes entry in the test on SW480 tumor xenografts (setting [7]) is listed as “significantly reduced tumor volumes”.
